According to patent US6299861A, “Ipratropium bromide enantiomer with prolonged duration of effect” (Boehringer Ingelheim KG, priority 1995, dated 2001):

Test system: acetylcholine-induced bronchospasm
Assay: Inhibition of acetylcholine-induced bronchospasm in the anaesthetised dog after administration by inhalation
Details: aerosol, FIG. 1; for peak inhibition of acetylcholine-induced bronchospasm: 5 μg L-(-)-enantiomer (curve B) or 10 μg racemate (curve A); for time at which peak inhibition of bronchospasm is reached / time until inhibition of bronchospasm has fallen back to initial/starting level: 5 μg L-(-)-enantiomer or 10 μg racemate
Method: 5 μg of the pure L-(-)-enantiomer and, accordingly, 10 μg of the racemate were administered.

Row | Compound | peak inhibition of acetylcholine-induced bronchospasm | time at which peak inhibition of bronchospasm is reached | time until inhibition of bronchospasm has fallen back to initial/starting level
1 | CC(C)[N+]1(C)C2CCC1CC(OC(=O)C(CO)c1ccccc1)C2 (single isomer, unassigned) [BIIH 150 BR, (endo, syn)-(-)-3-(3-hydroxy-l-oxo-2-phenylpropoxy)-8-methyl-8-(1-methylethyl)-8-azoniabicyclo [3,2,1]octane] | 60% | about 10 minutes | 180 min
2 | CC(C)[N+]1(C)C2CCC1CC(OC(=O)C(CO)c1ccccc1)C2 (stereo not drawn) [Ipratropium bromide] | about 55% | about 10 minutes | 60 min
